Assay [1] has as its system DLD-1 cells. Description: In vitro cell viability assay (CellTiter-Glo). The following applies: for EC50: Homo sapiens. In kind it is cell-based, human. How it is done: (§1) All cell lines were grown and treated in RPMI 1640 or Dulbecco’s modified Eagle medium (Sigma, St. Louis, MO) supplemented with 10% fetal bovine serum (Gibco) or 10% human serum (Sigma) and maintained in a humidified incubator at 5% CO2 and 37 °C. DLD-1, MV4-11, NCI-H929 (all ATCC, Manassas, VA, USA) and AMO-1 (DSMZ, Braunschweig, Germany) cells were plated 4000 cells per well in 384-well tissue culture plates and treated with compounds of interest for 24 h at 37 °C, 5% CO2 humidified incubator. Each concentration was tested in duplicate at least 3 separate times. Adherent cells were allowed to adhere overnight prior to treatment. Alternatively, AMO-1 or NCI-H929 cells were treated with ABBV-467 for the indicated contact times (1–24 h) at 37 °C in a 5% CO2 humidified incubator and washed 3 times with compound-free media prior to incubation for the remainder of a 24-h treatment period. Cell viability was subsequently determined using CellTiter-Glo (Promega, Madison, WI, USA) according to the manufacturer’s instructions.
(§2) For in vitro viability assays, mean EC50 and EC90 values were determined from the resulting dose-response curves from at least 3 independent experiments, and depict the mean ± standard error of the mean.

The subject of assay [2] is MV4-11 cells. Briefly: In vitro cell viability assay (CellTiter-Glo). In kind it is cell-based, human. How it is done: as §1, §2
(ATP-based viability assays read luminescence as a measure of living cells.)

In assay [3] the test system is NCI-H929 xenografts. Description: NCI-H929 xenograft efficacy (tumor volume, survival). To be noted: single dose […]. In kind it is in vivo. How it is done:
All animal studies were conducted in accordance with the guidelines approved by the Institutional Animal Care and Use Committees of AbbVie. The research protocol was approved by In Vivo Pharmacology at AbbVie prior to study initiation but was not publicly registered or disclosed. Female C.B-17 SCID-beige mice (AMO-1, OPM-2, NCI-H929, and OCI-AML2 xenografts) and female NSG mice (MV4-11-Red.Fluc systemic) were purchased from Charles River Laboratories (Wilmington, MA). Animals were housed in a light cycle-controlled room with HEPA filtration at 22 °C. Animals had nesting and climbing cage topper as the primary environmental enrichment. […] All xenograft trials were conducted using 5 to 10 mice per group, and all mice were ear tagged and monitored individually throughout the studies. […] Tumor burden in the systemic MV4-11-Red.Fluc experiment was measured using an IVIS® spectrum from PerkinElmer by taking the total photon flux of the entire dorsal side of an individual mouse. […]
For in vivo studies, maximal tumor growth inhibition (TGI) was calculated as the greatest treatment response using the following equation: Maximal TGI = (1 − mean tumor volume of the treated group/mean tumor volume of the vehicle control group) × 100. […] Data from experiments in vivo were analyzed using the student’s t-test for TGI values and the Mann–Whitney U test for TGD using Excel and GraphPad Prism. […]

As usually defined, the EC50 is the concentration at which the effect is half-maximal.

Values joined by “and” are separate entries in the source; they are usually repeats but may differ in a detail not shown here. Equal values may be shown once. Read-outs that look alike come from different tables or passages of the source.

For `Cc1c(Cl)c2c(Cl)c(C)c1-c1c(-c3ccc(F)cc3)sc3ncnc(c13)O[C@@H](C(=O)O)Cc1cc(ccc1OCc1ccnc(-c3ccc(OC[C@H]4COCCO4)cc3)n1)OC[C@@H](CN1CCN(C)CC1)O2` [ABBV-467], the “activity in DLD-1” value in assay [1] is “inactive”. In addition, the EC50 is over 10000 nM in assay [1] (DLD-1, read-out: DLD-1 EC50 (nM), 10% FBS, 24 h continuous treatment); over 10000 nM in assay [1] (DLD-1, arithmetic mean, read-out: Arithmetic Mean EC50); over 10000 nM in assay [1] (DLD-1, individual determinations, read-out: Individual EC50); 0.00391 µM in assay [2] (Homo sapiens, MV4-11, MV4-11, arithmetic mean, read-out: Arithmetic Mean EC50 µM); 0.00403 µM in assay [2] (Homo sapiens, MV4-11, MV4-11, individual determinations, read-out: Individual EC50); 0.00422 µM and 0.00347 µM in assay [2] (MV4-11, individual determinations, read-out: Individual EC50). In addition, in assay [3], the “mice with tumors remaining below 1000 mm^3 until 250 days post-treatment” value worked out at 40%.
